# Data: patent US9018388B2, “Pesticidal compositions and processes related thereto” (Dow AgroSciences LLC, priority 2012, dated 2015)
# Tests used:
# [1] = system: Green Peach Aphid (GPA) (Myzus persicae); assay: Bioassay on green peach aphid (GPA), foliar spray on cabbage seedlings; type: in vivo; conditions: 72 h, read-out: % Mortality GPA 200 ppm
# Procedure: Bioassays on Green Peach Aphid (“GPA”) (Myzus persicae)
# Certain molecules disclosed in this document were tested against GPA using procedures described in the following example. In the reporting of the results, the “GPA Rating Table” was used (See Table Section).
# Cabbage seedlings grown in 3-inch pots, with 2-3 small (3-5 cm) true leaves, were used as test substrate. The seedlings were infested with 20-50 GPA (wingless adult and nymph stages) one day prior to chemical application. Four pots with individual seedlings were used for each treatment. Test compounds (2 mg) were dissolved in 2 mL of acetone/methanol (1:1) solvent, forming stock solutions of 1000 ppm test compound. The stock solutions were diluted 5× with 0.025% Tween 20 in H2O to obtain the solution at 200 ppm test compound. A hand-held aspirator-type sprayer was used for spraying a solution to both sides of […] leaves until runoff. Reference plants (solvent check) were sprayed with the diluent only containing 20% by volume of acetone/methanol (1:1) solvent. Treated plants were held in a holding room for three days at approximately 25° C. and ambient relative humidity (RH) prior to grading. Evaluation was conducted by counting the number of live aphids per plant under a microscope. Percent Control was measured by using Abbott's correction formula (W. S. Abbott, “A Method of Computing the Effectiveness of an Insecticide” J. Econ. Entomol. 18 (1925), pp. 265-267) as follows. Corrected%Control=100*(X−Y)/X • where • X=No. of live aphids on solvent check plants and • Y=No. of live aphids on treated plants
# The results are indicated in the table entitled “Table 5: Biological Results” (See Table Section).
# [2] = system: Beet Armyworm (BAW) (Spodoptera exigua); assay: Bioassay on beet armyworm (BAW), 128-well diet tray assay; type: in vivo; conditions: Spodoptera exigua; Beet armyworm, 50 μg/cm^2; read-out: % Mortality BAW 50 μg/cm^2
# Method in brief: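 Second-instar Spodoptera exigua larvae, one to five per well, on artificial diet treated with 50 μg/cm^2 compound in 90:10 acetone-water and dried, eight wells per compound. Held at 25 °C, 14:10 light-dark for five to seven days; percent mortality averaged over wells.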
# [3] = system: Corn Earworm (CEW) (Helicoverpa zea); assay: Bioassay on corn earworm (CEW), 128-well diet tray assay; type: in vivo; conditions: Helicoverpa zea; Corn earworm, 50 μg/cm^2; read-out: % Mortality CEW 50 μg/cm^2
# Method in brief: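 Second-instar Helicoverpa zea larvae (one to five per well) placed on artificial diet treated with 50 μg/cm^2 compound in 90:10 acetone-water, dried, eight wells per compound. Held at 25 °C, 14:10 light-dark, five to seven days; percent mortality averaged over wells.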
melting point,SMILES,pest or weed control at 200 ppm [1] [%],"pest or weed control at 50 µg/cm2, 50 µg/cm2 [2] [%]","pest or weed control at 50 µg/cm2, 50 µg/cm2 [3] [%]"
200 °C (dec.),CC(C)c1ccccc1NC(=S)N/N=C/c1ccc(-c2ncn(-c3ccc4c(c3)OC(F)(F)O4)n2)cc1 [Compound I-36],–,–,–
158 to 160 °C,CC(C)c1c(F)cccc1NC(=S)NN [Compound I-51],–,–,–
–,Cc1cccc(Cl)c1-n1c(C)cs/c1=N\N=C\c1ccc(-c2ncn(-c3ccc(OC(F)(F)F)cc3)n2)cc1 [Compound 174C],0 to 80,50 to 100,50 to 100
–,CCOCC(=O)OCS/C(=N\c1c(C)cccc1C)N/N=C/c1ccc(-c2ncn(-c3ccc(OC(F)(F)F)cc3)n2)cc1 [Compound 22C],0 to 80,50 to 100,50 to 100
–,CC(C)=Cc1ccccc1N1C(=O)CS/C1=N\N=C\c1ccc(-c2ncn(-c3ccc(OC(F)(F)F)cc3)n2)cc1 [Compound 121C],0 to 80,50 to 100,50 to 100
–,Cc1cccc(C)c1/N=C(/N/N=C/c1ccc(-c2ncn(-c3ccc(OC(F)(F)F)cc3)n2)cc1)SCC(=O)NCCCNC(=O)OC(C)(C)C [Compound 58C],0 to 80,50 to 100,50 to 100
–,CCc1cccc(C)c1N1/C(=N/N=C/c2ccc(-c3ncn(-c4ccc(OC(F)(F)F)cc4)n3)cc2)SCC1C (stereo not drawn) [Compound 156C],0 to 80,50 to 100,50 to 100
–,COc1ccc(N2CCCS/C2=N\N=C\c2ccc(-c3ncn(-c4ccc(OC(F)(F)F)cc4)n3)cc2)cc1 [Compound 202C],0 to 80,50 to 100,50 to 100
–,"Cc1cccc(C)c1/N=C(/N/N=C/c1ccc(-c2ncn(-c3ccc(OC(F)(F)F)cc3)n2)cc1)SCC(=O)NC[C@@H]1CCCNC1 [Compound 62C, (1Z,2E)-2-oxo-2-(((R)-piperidin-3-ylmethyl)amino)ethyl N-(2,6-dimethylphenyl)-2-(4-(1-(4-(trifluoromethoxy)phenyl)-1H-1,2,4-triazol-3-yl)benzylidene)hydrazinecarbimidothioate trifluoroacetic acid]",0 to 80,50 to 100,50 to 100
139 to 141 °C,CC(F)(F)c1ccc(-n2cnc(-c3ccc(C=O)cc3)n2)cc1 [Compound I-62],–,–,–
–,"CC(C)c1ccccc1N1C(=O)CCSC1=NN=Cc1ccc(-c2ncn(-c3ccc(OC(F)(F)F)cc3)n2)cc1 (stereo in doubt) [Compound 224C, (Z)-3-(2-isopropylphenyl)-2-((E)-(4-(1-(4-(trifluoromethoxy)phenyl)-1H-1,2,4-triazol-3-yl)benzylidene)hydrazono)-1,3-thiazinan-4-one]",0 to 80,50 to 100,50 to 100
214 to 216 °C,CC(C)c1ccccc1NC(=S)N/N=C/c1ccc(-c2ncn(-c3ccc(OC(F)(F)C(F)(F)F)cc3)n2)cc1 [Compound I-33],–,–,–
–,FC(F)(F)Oc1ccc(-n2cnc(-c3ccc(/C=N/N=C4\SCCCN4c4ccccc4C4CC4)cc3)n2)cc1 [Compound 186C],0 to 80,50 to 100,50 to 100
163 to 217 °C,CC(C)c1cc(F)ccc1NC(=S)NN [Compound I-47],–,–,–
–,COc1cc(C)c(/N=C(/N/N=C/c2ccc(-c3ncn(-c4ccc(OC(F)(F)F)cc4)n3)cc2)SCOC(=O)C(C)C)c(C)c1 [Compound 27C],0 to 80,50 to 100,50 to 100
–,Cc1cccc(C)c1/N=C(/N/N=C/c1ccc(-c2ncn(-c3ccc(OC(F)(F)F)cc3)n2)cc1)SCC(=O)NCCCN [Compound 66C],0 to 80,50 to 100,50 to 100
–,COc1cc(C)c(/N=C(/N/N=C/c2ccc(-c3ncn(-c4ccc(OC(F)(F)F)cc4)n3)cc2)SCOC(=O)CNC(=O)OCc2ccccc2)c(C)c1 [Compound 28C],0 to 80,50 to 100,50 to 100
–,Cc1cccc(C)c1/N=C(/N/N=C/c1ccc(-c2ncn(-c3ccc(OC(F)(F)F)cc3)n2)cc1)SCC(=O)NCC(NC(=O)OC(C)(C)C)C(=O)O (stereo not drawn) [Compound 59C],0 to 80,50 to 100,50 to 100
–,CCc1cccc(C)c1N1/C(=N/N=C/c2ccc(-c3ncn(-c4ccc(OC(F)(F)F)cc4)n3)cc2)SCCC1C (stereo not drawn) [Compound 213C],0 to 80,50 to 100,50 to 100
–,CC(=O)OCS/C(=N\c1c(C)cccc1C)N/N=C/c1ccc(-c2ncn(-c3ccc(OC(F)(F)F)cc3)n2)cc1 [Compound 31C],0 to 80,50 to 100,50 to 100
–,Cc1cccc(C)c1-n1c(-c2cc(-c3ccc(Cl)cc3)no2)cs/c1=N\N=C\c1ccc(-c2ncn(-c3ccc(OC(F)(F)F)cc3)n2)cc1 [Compound 76C],0 to 80,50 to 100,50 to 100
133 to 135 °C,CC(C)c1ccc(F)cc1NC(=S)NN [Compound I-43],–,–,–
–,O=C1CS/C(=N\N=C\c2ccc(-c3ncn(-c4ccc(OC(F)(F)F)cc4)n3)cc2)N1c1ccccc1-c1ccccc1 [Compound 96C],0 to 80,50 to 100,50 to 100
–,COc1cc(C)c(N2CCS/C2=N\N=C\c2ccc(-c3ncn(-c4ccc(OC(F)(F)F)cc4)n3)cc2)c(C)c1 [Compound 138C],0 to 80,50 to 100,50 to 100
